PubChem BioAssay (NCI)
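Cultured in 96-well plates, cells were exposed to test compound for 48 hours across five concentrations. At the GI50, growth is halved. TGI marks complete inhibition of growth.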

Columns and labels:
Assay in all cases: NCI-60 cell line screen, 48 h
786-0 renal = system: 786-0 renal
A498 renal = system: A498 renal
A549 NSCLC = system: A549 NSCLC
ACHN renal = system: ACHN renal
BT-549 breast = system: BT-549 breast
CAKI-1 renal = system: CAKI-1 renal
CCRF-CEM leukemia = system: CCRF-CEM leukemia
COLO 205 colon = system: COLO 205 colon
DU-145 prostate = system: DU-145 prostate
HCC-2998 colon = system: HCC-2998 colon
HCT-15 colon = system: HCT-15 colon
HL-60(TB) leukemia = system: HL-60(TB) leukemia
HOP-62 NSCLC = system: HOP-62 NSCLC
HOP-92 NSCLC = system: HOP-92 NSCLC
HS 578T breast = system: HS 578T breast
HT29 colon = system: HT29 colon
IGROV1 ovarian = system: IGROV1 ovarian
KM12 colon = system: KM12 colon
LOX IMVI melanoma = system: LOX IMVI melanoma
MALME-3M melanoma = system: MALME-3M melanoma
MDA-MB-231 breast = system: MDA-MB-231 breast
MDA-MB-435 = system: MDA-MB-435
NCI-H226 lung = system: NCI-H226 lung
NCI-H23 lung = system: NCI-H23 lung
NCI-H460 lung = system: NCI-H460 lung
NCI-H522 lung = system: NCI-H522 lung
NCI/ADR-RES ovarian = system: NCI/ADR-RES ovarian
OVCAR-3 ovarian = system: OVCAR-3 ovarian
OVCAR-5 ovarian = system: OVCAR-5 ovarian
OVCAR-8 ovarian = system: OVCAR-8 ovarian
PC-3 prostate = system: PC-3 prostate
RPMI-8226 leukemia = system: RPMI-8226 leukemia
RXF 393 renal = system: RXF 393 renal
SF-268 CNS = system: SF-268 CNS
SF-295 CNS = system: SF-295 CNS
SF-539 CNS = system: SF-539 CNS
SK-MEL-2 melanoma = system: SK-MEL-2 melanoma
SK-MEL-28 melanoma = system: SK-MEL-28 melanoma
SK-MEL-5 melanoma = system: SK-MEL-5 melanoma
SK-OV-3 ovarian = system: SK-OV-3 ovarian
SN12C renal = system: SN12C renal
SNB-19 CNS = system: SNB-19 CNS
SNB-75 CNS = system: SNB-75 CNS
SR leukemia = system: SR leukemia
SW-620 colon = system: SW-620 colon
TK-10 renal = system: TK-10 renal
UACC-257 melanoma = system: UACC-257 melanoma
UACC-62 melanoma = system: UACC-62 melanoma
UO-31 renal = system: UO-31 renal
EKVX NSCLC = system: EKVX NSCLC
T-47D breast = system: T-47D breast

## Nc1ccc(-c2nc3ccc(Cc4ccc5nc(-c6ccc(N)cc6)[nH]c5c4)cc3[nH]2)cc1
786-0 renal
  GI50: 4.52 µM
  TGI: 31.6 µM
A498 renal
  GI50: 0.855 µM
  TGI: 21.4 µM
A549 NSCLC
  GI50: 20.8 µM
  TGI: 57.7 µM
ACHN renal
  GI50: 17.9 µM
  TGI: 37.5 µM
BT-549 breast
  GI50: 9.86 µM
  TGI: 67.2 µM
CAKI-1 renal
  GI50: 45.6 µM
  TGI: > 100 µM
CCRF-CEM leukemia
  GI50: 2.12 µM
  TGI: 6.7 µM
COLO 205 colon
  GI50: 1.65 µM
  TGI: 3.2 µM
DU-145 prostate
  GI50: 11.1 µM
  TGI: 24.2 µM
HCC-2998 colon
  GI50: 2.84 µM
  TGI: 12.1 µM
HCT-15 colon
  GI50: 14.8 µM
  TGI: 47.9 µM
HL-60(TB) leukemia
  GI50: 10.4 µM
  TGI: 36.9 µM
HOP-62 NSCLC
  GI50: 6.53 µM
  TGI: 35 µM
HOP-92 NSCLC
  GI50: 16.5 µM
  TGI: 39 µM
HS 578T breast
  GI50: 13 µM
  TGI: 39.5 µM
HT29 colon
  GI50: 1.89 µM
  TGI: 4.1 µM
IGROV1 ovarian
  GI50: 16.9 µM
  TGI: 39.8 µM
KM12 colon
  GI50: 1.37 µM
  TGI: 3.05 µM
LOX IMVI melanoma
  GI50: 2.28 µM
  TGI: 5.32 µM
MALME-3M melanoma
  GI50: 2.04 µM
  TGI: 4.53 µM
MDA-MB-231 breast
  GI50: 2.14 µM
  TGI: 5.18 µM
MDA-MB-435
  GI50: 1.45 µM
  TGI: 3.67 µM
NCI-H226 lung
  GI50: 8.06 µM
  TGI: 36.9 µM
NCI-H23 lung
  GI50: 3.83 µM
  TGI: 22.3 µM
NCI-H460 lung
  GI50: 14.4 µM
  TGI: 37.1 µM
NCI-H522 lung
  GI50: 1.97 µM
  TGI: 4.87 µM
NCI/ADR-RES ovarian
  GI50: > 100 µM
  TGI: > 100 µM
OVCAR-3 ovarian
  GI50: 1.76 µM
  TGI: 3.31 µM
OVCAR-5 ovarian
  GI50: 12 µM
  TGI: 30 µM
OVCAR-8 ovarian
  GI50: 2.48 µM
  TGI: 6.58 µM
PC-3 prostate
  GI50: 4.25 µM
  TGI: 20.1 µM
RPMI-8226 leukemia
  GI50: 25.7 µM
  TGI: > 100 µM
RXF 393 renal
  GI50: 15.7 µM
  TGI: 42.9 µM
SF-268 CNS
  GI50: 4.23 µM
  TGI: 26.9 µM
SF-295 CNS
  GI50: 12.8 µM
  TGI: 32.4 µM
SF-539 CNS
  GI50: 1.91 µM
  TGI: 3.91 µM
SK-MEL-2 melanoma
  GI50: 12.6 µM
  TGI: 35.4 µM
SK-MEL-28 melanoma
  GI50: 1.93 µM
  TGI: 4.27 µM
SK-MEL-5 melanoma
  GI50: 5.22 µM
  TGI: 34.1 µM
SK-OV-3 ovarian
  GI50: 18.9 µM
  TGI: 40.6 µM
SN12C renal
  GI50: 8.75 µM
  TGI: 29 µM
SNB-19 CNS
  GI50: 3.24 µM
  TGI: 18.2 µM
SNB-75 CNS
  GI50: 12.3 µM
  TGI: 28.9 µM
SR leukemia
  GI50: 1.48 µM
  TGI: > 100 µM
SW-620 colon
  GI50: 1.8 µM
  TGI: 3.46 µM
TK-10 renal
  GI50: 24.4 µM
  TGI: 43.3 µM
UACC-257 melanoma
  GI50: 20.6 µM
  TGI: 45.7 µM
UACC-62 melanoma
  GI50: 3.59 µM
  TGI: 17.8 µM
UO-31 renal
  GI50: 45.4 µM
  TGI: > 100 µM

## Cc1cc(C(C)(C)CC(C)(C)C)ccc1OCCOCC[N+](C)(C)Cc1ccccc1
ACHN renal
  GI50: 3.19 µM
  TGI: 11.3 µM
CAKI-1 renal
  GI50: 10.4 µM
  TGI: 39 µM
COLO 205 colon
  GI50: 1.25 µM
  TGI: 2.64 µM
DU-145 prostate
  GI50: 1.66 µM
  TGI: 3.13 µM
EKVX NSCLC
  GI50: 1.55 µM
  TGI: 4.07 µM
HCT-15 colon
  GI50: 9.8 µM
  TGI: 44 µM
HL-60(TB) leukemia
  GI50: 0.436 µM
  TGI: 1.62 µM
HOP-62 NSCLC
  GI50: 1.44 µM
  TGI: 2.84 µM
HOP-92 NSCLC
  GI50: 1.03 µM
  TGI: 2.46 µM
HS 578T breast
  GI50: 1.86 µM
  TGI: 5.16 µM
MDA-MB-231 breast
  GI50: 1.33 µM
  TGI: 2.75 µM
NCI/ADR-RES ovarian
  GI50: 15.3 µM
  TGI: 51 µM
OVCAR-5 ovarian
  GI50: 1.71 µM
  TGI: 3.45 µM
SK-OV-3 ovarian
  GI50: 1.44 µM
  TGI: 2.78 µM
T-47D breast
  GI50: 0.388 µM
  TGI: 1.81 µM
UACC-62 melanoma
  GI50: 0.967 µM
  TGI: 2.21 µM
UO-31 renal
  GI50: 2.25 µM
  TGI: 6.65 µM
